What all share (assay type): biochemical
The target of assay [1] is T1, Human PI3K alpha (Homo sapiens, UniProt P42336).
T1 construct: His (N); host or cells: SF9 insect cells (baculovirus)
Briefly: Human PI3K alpha enzyme assay (HTRF). As to conditions: concentration not given, b1387 states 1.1 μM for PI3K α and β; for inhibition at 1.1 µM: read-out: p110 alpha Percent Inhibition.

Assay [2] concerns the target T2, Human PI3K beta (Homo sapiens, UniProt P42338).
T2 construct: His (N); host or cells: SF9 insect cells (baculovirus)
Briefly: Human PI3K beta enzyme assay (HTRF). As to conditions: concentration not given, b1387 states 1.1 μM for PI3K α and β; for inhibition at 1.1 µM: read-out: p110 beta Percent Inhibition. Summed up: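 Compounds were mixed with 25 uM ATP, then with 3.5 uM di-C8 PI(4,5)P2 and His-tagged PI3K isoform (β 5.25 nM, δ 0.75 nM, γ 5 nM) at pH 7.00. After 30 min at room temperature, EDTA stopped the reaction and PIP3 was measured by HTRF over 1 h.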

Assay [3] addresses T3, Human PI3K delta (Homo sapiens, UniProt O00329).
T3 construct: His (N); host or cells: SF9 insect cells (baculovirus)
Briefly: Human PI3K delta enzyme assay (HTRF). As to conditions: concentration not given, b1389 states 1.0 μM for PI3K δ and γ; for inhibition at 1 µM: read-out: p110 delta Percent Inhibition. The source says: (§1) The catalytic subunits of PI3Ks are cloned into either pDEST8(p110 alpha) or pDEST10(p110beta, p110delta, and p110gamma) as N-terminal His tagged fusion proteins using the Gateway system (Invitrogen, catalog#11804-010 for pDEST8 and 11806-015 for pDEST10). The sequences are verified before recombinant protein expression using the Baculovirus Expression System with Gateway® Technology. The accession numbers for the subunits are as follows: • p110 alpha (GB:U79143) • p110beta (GB: S67334) • p110delta (GB: U86453) • p110gamma (GB: X83368) • The regulatory subunits of PI3Ks are cloned into pDEST8 as un-tagged protein using the Gateway system (Catalog#11804-010). The sequences are verified before recombinant protein expression using the Baculovirus Expression System with Gateway® Technology. The accession numbers for the subunits are as following: • p85 alpha (GB: BC030815) • p101(GB: AB028925) • VPS34 (accession number GB:BC033004) is cloned into pDEST20—Thombin as N-terminal GST tagged fusion proteins using the Gateway system (Invitrogen, catalog#11804-013). The sequences are verified before recombinant protein expression using the Baculovirus Expression System with Gateway® Technology.
(§2) For expression of the p110 complexes, the p85 (MOI of 4) is co-infected with p110 alpha, beta, and delta respectively (1MOI) in SF9 cells and harvested at 60 hours post co-infection. P110 gamma was infected at 1 MOI and harvested at 60 hours post infection.
(§3) For purification, PI3Ks are purified by Ni-NTA Agarose (Qiagen #30250) followed by Mono Q 10/100 GL (Ge Healthcare #17-5167-01). VPS34 is purified by Glutathione Sepharose 4 Fast Flow (GE Healthcare #17-5132-03) followed by HiTrap Q (GE Healthcare #17-1153-01).
(§4) 0.5 uL compounds in DMSO are added to wells of a 384 well microtitre plate (Corning 3575). At room temperature: 10 ul PI3K reaction buffer (50 mM Hepes, 5 mM DTT, 150 mM NaCl, 10 mM beta-glycerophosphate, 10 mM MgCl2, 0.25 mM sodium cholate and 0.001% CHAPS, pH 7.00) containing ATP (25 uM, Promega) is added followed immediately by 10 ul PI3K reaction buffer containing di-C8 P1(4,5)P2 (3.5 uM, CellSignals) and PI3Kalpha (0.4875 nM, Millennium Protein Sciences Group) and the mixture is incubated with shaking at room temperature for 30 minutes. Then 5 ul PI3K stop mix (50 mM Hepes, 5 mM DTT, 150 mM NaCl, 0.01% Tween-20, 15 mM EDTA and 25 nM biotin-PI(3,4,5)P3 (Echelon) is added to quench the reaction followed immediately by addition of 5 ul HTRF detection mix (50 mM Hepes, 5 mM DTT, 150 mM NaCl, 0.01% Tween-20, 40 mM KF, 1.0 nM GST:GRP-1 PH domain (Millennium Protein Sciences Group), 15 nM Streptavidin-XL (CisBio) and 0.375 nM anti-GST Eu++ antibody (CisBio) at pH 7.00). The plates are then incubated for 1 hour at room temperature with shaking and then read on a BMG PheraStar Plus reader.
(§5) 2) Human PI3K beta, delta and gamma isoforms are tested using the procedure described for PI3K alpha above but with the following changes: PI3K beta (5.25 nM), PI3K delta (0.75 nM) and PI3K gamma (5 nM). All isoforms supplied by Millennium Protein Science Group.
(§6) For the assay methods described above, test compound percent inhibition, at various concentrations, is calculated relative to control (DMSO and EDTA) treated samples. Compound concentration versus percent inhibition curves are fitted to generate IC50 values. One skilled in the art will appreciate that the values generated either as percentage inhibition at a single concentration or IC50 values are subject to experimental variation.

Assay [4] addresses T4, Human PI3K gamma (Homo sapiens, UniProt P48736).
T4 construct: His (N); host or cells: SF9 insect cells (baculovirus)
Briefly: Human PI3K gamma enzyme assay (HTRF). The note with it: concentration not given, b1389 states 1.0 μM for PI3K δ and γ; for inhibition at 1 µM: read-out: p110 gamma Percent Inhibition.
Source text: as §1, §2, §3, §4, §5, §6

T2 sequence (P42338 whole entry): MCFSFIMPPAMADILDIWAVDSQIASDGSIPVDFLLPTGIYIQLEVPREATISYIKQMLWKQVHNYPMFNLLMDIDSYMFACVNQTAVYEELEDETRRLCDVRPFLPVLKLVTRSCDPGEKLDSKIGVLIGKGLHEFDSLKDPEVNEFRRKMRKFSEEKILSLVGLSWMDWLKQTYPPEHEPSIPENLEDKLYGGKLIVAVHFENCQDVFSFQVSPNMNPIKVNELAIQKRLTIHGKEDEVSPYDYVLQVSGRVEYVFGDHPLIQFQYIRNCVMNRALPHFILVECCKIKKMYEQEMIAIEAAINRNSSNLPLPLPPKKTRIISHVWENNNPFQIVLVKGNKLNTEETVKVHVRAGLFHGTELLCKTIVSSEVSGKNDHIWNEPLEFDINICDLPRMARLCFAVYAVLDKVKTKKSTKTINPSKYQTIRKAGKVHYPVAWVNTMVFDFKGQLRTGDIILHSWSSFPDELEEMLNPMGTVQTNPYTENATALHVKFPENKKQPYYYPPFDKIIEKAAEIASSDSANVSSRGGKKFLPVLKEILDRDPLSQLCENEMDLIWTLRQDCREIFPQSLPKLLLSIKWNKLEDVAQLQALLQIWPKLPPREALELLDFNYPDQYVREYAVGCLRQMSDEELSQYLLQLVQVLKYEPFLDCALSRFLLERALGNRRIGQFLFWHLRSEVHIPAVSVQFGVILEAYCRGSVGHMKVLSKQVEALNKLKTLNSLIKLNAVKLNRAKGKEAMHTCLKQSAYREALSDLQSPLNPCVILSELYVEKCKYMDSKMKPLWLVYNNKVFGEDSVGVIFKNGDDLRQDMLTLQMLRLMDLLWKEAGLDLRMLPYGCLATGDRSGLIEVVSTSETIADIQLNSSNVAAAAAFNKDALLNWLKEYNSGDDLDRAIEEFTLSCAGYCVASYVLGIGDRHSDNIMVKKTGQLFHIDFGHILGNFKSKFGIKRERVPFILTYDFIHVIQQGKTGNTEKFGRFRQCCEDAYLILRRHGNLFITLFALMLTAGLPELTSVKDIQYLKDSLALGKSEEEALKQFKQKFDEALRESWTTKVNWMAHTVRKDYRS
T2 sequence (P27986 whole entry partner): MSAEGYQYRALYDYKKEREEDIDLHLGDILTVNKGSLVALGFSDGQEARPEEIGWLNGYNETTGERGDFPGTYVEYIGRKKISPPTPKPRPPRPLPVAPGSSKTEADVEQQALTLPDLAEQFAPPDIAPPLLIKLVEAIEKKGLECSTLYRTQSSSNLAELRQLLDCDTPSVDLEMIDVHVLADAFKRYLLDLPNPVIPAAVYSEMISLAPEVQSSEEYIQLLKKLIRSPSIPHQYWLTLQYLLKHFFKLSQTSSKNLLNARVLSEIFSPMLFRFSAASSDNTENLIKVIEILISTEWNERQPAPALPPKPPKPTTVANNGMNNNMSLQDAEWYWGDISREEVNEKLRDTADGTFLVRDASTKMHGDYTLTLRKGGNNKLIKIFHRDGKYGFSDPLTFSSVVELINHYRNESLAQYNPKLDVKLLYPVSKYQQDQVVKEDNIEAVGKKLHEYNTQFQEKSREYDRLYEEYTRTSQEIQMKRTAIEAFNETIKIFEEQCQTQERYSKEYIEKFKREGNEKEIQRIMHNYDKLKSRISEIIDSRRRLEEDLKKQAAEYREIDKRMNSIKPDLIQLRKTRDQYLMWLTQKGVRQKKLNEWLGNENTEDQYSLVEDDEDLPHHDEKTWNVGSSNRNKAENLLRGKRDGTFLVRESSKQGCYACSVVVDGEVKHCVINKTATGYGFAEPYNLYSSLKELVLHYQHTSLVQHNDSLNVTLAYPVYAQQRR
T4 sequence (P48736 whole entry): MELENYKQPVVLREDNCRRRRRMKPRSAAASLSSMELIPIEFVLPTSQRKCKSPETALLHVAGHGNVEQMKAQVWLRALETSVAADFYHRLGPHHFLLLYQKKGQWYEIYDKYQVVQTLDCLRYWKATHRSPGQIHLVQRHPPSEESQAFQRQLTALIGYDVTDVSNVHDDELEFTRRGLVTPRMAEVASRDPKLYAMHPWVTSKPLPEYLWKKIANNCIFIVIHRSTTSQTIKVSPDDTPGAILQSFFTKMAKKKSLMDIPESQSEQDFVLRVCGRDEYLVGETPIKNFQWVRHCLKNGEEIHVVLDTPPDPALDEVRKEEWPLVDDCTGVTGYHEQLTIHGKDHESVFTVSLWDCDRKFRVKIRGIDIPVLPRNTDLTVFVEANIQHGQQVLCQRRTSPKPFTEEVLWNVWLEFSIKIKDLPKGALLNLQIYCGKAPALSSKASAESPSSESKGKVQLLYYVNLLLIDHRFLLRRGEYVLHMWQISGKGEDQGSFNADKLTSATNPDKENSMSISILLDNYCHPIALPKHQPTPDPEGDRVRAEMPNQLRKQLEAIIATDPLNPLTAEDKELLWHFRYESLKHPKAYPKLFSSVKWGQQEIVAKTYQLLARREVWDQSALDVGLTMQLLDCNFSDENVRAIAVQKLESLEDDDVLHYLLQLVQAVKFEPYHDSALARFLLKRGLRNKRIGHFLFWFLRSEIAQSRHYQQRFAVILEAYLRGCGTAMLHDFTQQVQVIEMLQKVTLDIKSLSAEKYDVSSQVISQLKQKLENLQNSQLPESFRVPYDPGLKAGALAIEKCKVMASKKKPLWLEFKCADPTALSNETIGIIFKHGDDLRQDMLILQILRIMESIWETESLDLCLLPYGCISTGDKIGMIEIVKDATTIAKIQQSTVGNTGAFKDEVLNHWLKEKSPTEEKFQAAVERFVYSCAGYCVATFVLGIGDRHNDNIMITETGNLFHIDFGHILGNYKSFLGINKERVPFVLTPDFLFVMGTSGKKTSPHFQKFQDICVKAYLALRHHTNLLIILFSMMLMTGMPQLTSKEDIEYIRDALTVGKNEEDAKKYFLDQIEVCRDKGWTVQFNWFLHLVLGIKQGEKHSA
T3 sequence (O00329 whole entry): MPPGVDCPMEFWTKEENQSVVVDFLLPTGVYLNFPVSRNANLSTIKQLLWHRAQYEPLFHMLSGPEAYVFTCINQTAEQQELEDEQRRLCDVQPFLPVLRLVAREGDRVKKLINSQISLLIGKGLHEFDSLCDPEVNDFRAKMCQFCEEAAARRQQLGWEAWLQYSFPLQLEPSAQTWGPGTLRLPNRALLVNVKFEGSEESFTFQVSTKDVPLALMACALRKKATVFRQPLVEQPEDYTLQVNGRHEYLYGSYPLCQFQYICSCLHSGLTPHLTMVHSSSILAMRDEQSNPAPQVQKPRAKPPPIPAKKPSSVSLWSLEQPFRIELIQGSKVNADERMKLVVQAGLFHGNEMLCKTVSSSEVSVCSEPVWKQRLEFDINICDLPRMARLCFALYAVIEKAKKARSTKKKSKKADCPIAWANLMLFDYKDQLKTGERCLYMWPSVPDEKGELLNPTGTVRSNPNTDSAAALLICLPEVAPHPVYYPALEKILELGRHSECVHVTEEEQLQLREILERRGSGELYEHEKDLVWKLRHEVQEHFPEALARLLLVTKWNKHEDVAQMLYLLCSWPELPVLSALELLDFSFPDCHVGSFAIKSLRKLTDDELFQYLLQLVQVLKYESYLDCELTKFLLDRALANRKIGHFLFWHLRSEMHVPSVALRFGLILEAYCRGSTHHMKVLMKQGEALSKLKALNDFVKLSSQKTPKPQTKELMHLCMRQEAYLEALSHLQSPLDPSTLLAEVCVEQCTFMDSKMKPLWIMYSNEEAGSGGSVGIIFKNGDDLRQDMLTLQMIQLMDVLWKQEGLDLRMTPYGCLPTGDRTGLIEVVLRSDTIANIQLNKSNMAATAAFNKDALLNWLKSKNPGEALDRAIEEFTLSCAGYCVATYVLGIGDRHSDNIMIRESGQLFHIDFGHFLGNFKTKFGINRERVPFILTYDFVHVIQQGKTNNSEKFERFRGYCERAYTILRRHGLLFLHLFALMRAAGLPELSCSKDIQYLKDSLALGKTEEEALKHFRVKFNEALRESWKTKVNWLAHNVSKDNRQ
T3 sequence (P27986 whole entry partner): as the sequence (P27986 whole entry partner) above
T1 sequence (P42336 whole entry): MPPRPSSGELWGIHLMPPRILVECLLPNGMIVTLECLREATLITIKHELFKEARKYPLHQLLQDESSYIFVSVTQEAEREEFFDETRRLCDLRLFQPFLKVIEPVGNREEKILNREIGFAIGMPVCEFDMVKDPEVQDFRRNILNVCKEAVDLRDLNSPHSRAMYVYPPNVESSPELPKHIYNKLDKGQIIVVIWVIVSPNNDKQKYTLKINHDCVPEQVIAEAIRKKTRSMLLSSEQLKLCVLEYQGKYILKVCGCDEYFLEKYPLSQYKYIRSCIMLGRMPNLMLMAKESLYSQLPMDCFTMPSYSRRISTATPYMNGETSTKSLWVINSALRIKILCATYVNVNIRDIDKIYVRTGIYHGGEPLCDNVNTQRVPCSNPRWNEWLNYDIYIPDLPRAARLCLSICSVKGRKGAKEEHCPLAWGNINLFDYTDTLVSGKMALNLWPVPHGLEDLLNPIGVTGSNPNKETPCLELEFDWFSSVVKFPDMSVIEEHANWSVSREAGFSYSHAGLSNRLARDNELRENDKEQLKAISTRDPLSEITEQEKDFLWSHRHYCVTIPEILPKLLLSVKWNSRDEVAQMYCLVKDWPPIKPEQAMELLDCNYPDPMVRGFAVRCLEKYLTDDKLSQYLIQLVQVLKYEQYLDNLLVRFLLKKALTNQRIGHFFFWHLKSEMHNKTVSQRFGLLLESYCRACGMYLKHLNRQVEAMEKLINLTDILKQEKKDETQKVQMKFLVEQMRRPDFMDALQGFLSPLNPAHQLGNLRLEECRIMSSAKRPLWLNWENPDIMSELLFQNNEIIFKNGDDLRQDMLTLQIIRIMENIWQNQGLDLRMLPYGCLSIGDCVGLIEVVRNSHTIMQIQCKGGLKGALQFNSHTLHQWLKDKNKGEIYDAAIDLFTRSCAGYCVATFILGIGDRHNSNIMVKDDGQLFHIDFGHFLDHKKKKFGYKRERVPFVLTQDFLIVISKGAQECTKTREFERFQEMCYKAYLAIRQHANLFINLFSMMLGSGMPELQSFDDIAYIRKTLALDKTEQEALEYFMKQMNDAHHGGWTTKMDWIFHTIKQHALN
T1 sequence (P27986 whole entry partner): as the sequence (P27986 whole entry partner) above

`CC(=O)Nc1cc(-c2sc(-c3nnc[nH]3)c(S(=O)(=O)c3ccc(Cl)cc3)c2C#N)ccn1` [Compound 140, N-{4-[4-[(4-chlorophenyl)sulfonyl]-3-cyano-5-(4H-1,2,4-triazol-3-yl)-2-thienyl]pyridin-2-yl}acetamide]: the inhibition at 1.1 µM in assay [1] was found to be 76%; in assay [2], 47%. Besides, the inhibition at 1 µM in assay [3] was 74%; in assay [4], 62%.

`Cc1ccc(C(O)c2cc(-c3ccncc3)sc2-c2nnc[nH]2)c(C)c1` (stereo not shown) [Compound 141]: the inhibition at 1.1 µM was 17% in assay [1] and 89% in assay [2]. Also, the values for the inhibition at 1 µM in assay [3] and in assay [4] were 66% and 15%, respectively.

Regarding `OC(c1ccc(C(F)(F)F)cc1)c1cc(-c2ccncc2)sc1-c1nnc[nH]1` (stereo not shown) [Compound 142], the inhibition at 1.1 µM in assay [1] was found to be 15%; in assay [2], 67%. Further, the inhibition at 1 µM in assay [3] stood at 47%; in assay [4], 7%.

For `N#Cc1c(-c2ccncc2)sc(C(=O)O)c1Cc1ccc2ccccc2c1` [Compound 143], the inhibition at 1.1 µM in assay [1] amounted to 58%; in assay [2], 115%. Besides, the inhibition at 1 µM in assay [3] is 85%; in assay [4], 62%.

As for `CC(=O)Nc1cc(-c2cc(C(c3ccc(Cl)cc3)N3CC(N(C)C)C3)c(-c3nnc[nH]3)s2)ccn1` (stereo not shown) [Compound 144], the “p110 alpha Percent Inhibition” value in assay [1] is recorded as 63%. Moreover, the inhibition at 1.1 µM in assay [2] is 94%. Besides, the inhibition at 1 µM came to 111% in assay [3] and 19% in assay [4].

On to `CC(=O)Nc1cc(-c2cc(C(O)(CCCN(C)C)c3ccc(Cl)cc3)c(-c3nnc[nH]3)s2)ccn1` (stereo not shown) [Compound 145], for which the inhibition at 1.1 µM was found to be 64% in assay [1] and 98% in assay [2]. Further, the inhibition at 1 µM in assay [3] amounted to 97%; in assay [4], 9%.

On to `O=C(Nc1cc(-c2cc(C(c3ccc(Cl)cc3)N3CCNCC3)c(-c3nnc[nH]3)s2)ccn1)C1CC1` (stereo not shown) [Compound 146], for which the inhibition at 1.1 µM in assay [1] came to 67%; in assay [2], 103%. In addition, the values for the inhibition at 1 µM in assay [3] and in assay [4] were 110% and 23%, respectively.

As for `OC(c1ccc(Cl)cc1)c1cc(-c2ccnc(Nc3ncco3)c2)sc1-c1nnc[nH]1` (stereo not shown) [Compound 147], the inhibition at 1.1 µM in assay [1] was determined as 83%; in assay [2], 96%. For the same compound, the inhibition at 1 µM was 107% in assay [3] and 18% in assay [4].

As for `N#Cc1c(-c2ccncc2)sc(-c2nnc[nH]2)c1Cc1ccc2ccccc2c1` [Compound 148], the inhibition at 1.1 µM came out at 41% in assay [1] and 98% in assay [2]. Moreover, the inhibition at 1 µM came out at 69% in assay [3] and 34% in assay [4].

Consider `COc1cc(C(O)c2cc(-c3ccnc(Cl)c3)sc2-c2nnc[nH]2)c(F)cc1Cl` (stereo not shown) [Compound 149], for which the “p110 alpha Percent Inhibition” value in assay [1] came out at 54%. Moreover, in assay [2], the “p110 beta Percent Inhibition” value is 109%. Besides, the “p110 delta Percent Inhibition” value in assay [3] turned out to be 117%. Moreover, in assay [4], the “p110 gamma Percent Inhibition” value is recorded as 75%.

Consider `Nc1nccc(-c2sc(-c3ccncc3)nc2Cc2ccc(Cl)cc2)n1` [Compound 150, 4-(4-(4-chlorobenzyl)-2-(pyridin-4-yl)thiazol-5-yl)pyrimidin-2-amine], for which the inhibition at 1.1 µM in assay [1] worked out at 2%; in assay [2], 54%. In addition, the inhibition at 1 µM came out at 35% in assay [3] and 6% in assay [4].

Turning to `CC(=O)Nc1cc(-c2cc(C(c3ccc(Cl)cc3)N3CCC3)c(-c3nnc[nH]3)s2)ccn1` (stereo not shown) [Compound 151], the inhibition at 1.1 µM in assay [1] amounted to 72%; in assay [2] it was 105%. Besides, the values for the inhibition at 1 µM in assay [3] and in assay [4] were 108% and 17%, respectively.

With `COC(=O)Nc1cc(-c2cc(C(c3ccc(Cl)cc3)N3CCNCC3)c(-c3nnc[nH]3)s2)ccn1` (stereo not shown) [Compound 152], the inhibition at 1.1 µM in assay [1] was found to be 61%; in assay [2], 97%. Besides, the inhibition at 1 µM in assay [3] was 106%; in assay [4], 16%.

Regarding `CC(=O)Nc1cc(-c2sc(-c3nnc[nH]3)c(C(O)c3ccc4ccccc4n3)c2C#N)ccn1` (stereo not shown) [Compound 153], the inhibition at 1.1 µM worked out at 75% in assay [1] and 84% in assay [2]. Besides, the inhibition at 1 µM is 87% in assay [3] and 11% in assay [4].

Turning to `CC(=O)Nc1cc(-c2cc(C(c3ccc(Cl)cc3)N3CCNCC3)c(-c3nnc[nH]3)s2)ccn1` (stereo not shown) [Compound 154], the inhibition at 1.1 µM in assay [1] is 79%; in assay [2] it was 108%. Besides, the inhibition at 1 µM in assay [3] was 108%; in assay [4], 39%.

Take `OC(c1ccccc1F)c1cc(-c2ccncc2)sc1-c1nnc[nH]1` (stereo not shown) [Compound 155]: the inhibition at 1.1 µM is 29% in assay [1] and 64% in assay [2]. For the same compound, the values for the inhibition at 1 µM in assay [3] and in assay [4] were 53% and 28%, respectively.

For `CC(=O)Nc1cc(-c2cc(C(c3ccc(Cl)cc3)N3CCN(CC(F)(F)F)CC3)c(-c3nnc[nH]3)s2)ccn1` (stereo not shown) [Compound 157], the inhibition at 1.1 µM in assay [1] was determined as 55%; in assay [2], 68%. The inhibition at 1 µM in assay [3] turned out to be 101%; in assay [4] it was 7%.

On to `COc1ccc(C(O)c2cc(-c3ccncc3)sc2-c2nnc[nH]2)c(C)c1` (stereo not shown) [Compound 158], for which the values for the inhibition at 1.1 µM in assay [1] and in assay [2] were 18% and 94%, respectively. Further, the inhibition at 1 µM in assay [3] turned out to be 69%; in assay [4], 20%.

As to `OC(c1cccc(C(F)(F)F)c1)c1cc(-c2ccncc2)sc1-c1nnc[nH]1` (stereo not shown) [Compound 159], the inhibition at 1.1 µM was determined as 18% in assay [1] and 61% in assay [2]. In addition, the inhibition at 1 µM in assay [3] was 31%; in assay [4], 5%.

With `CC(=O)Nc1cc(-c2cc(C(c3ccc(Cl)cc3)N(C)C3CN(C)C3)c(-c3nnc[nH]3)s2)ccn1` (stereo not shown) [Compound 160], the results for the inhibition at 1.1 µM in assay [1] and in assay [2] were 74% and 101%, respectively. For the same compound, the inhibition at 1 µM in assay [3] was 107%; in assay [4], 20%.

As for `Cc1cc(-c2cc(C(c3ccc(Cl)cc3)N(C)C)c(-c3nnc[nH]3)s2)ccn1` (stereo not shown) [Compound 161], the inhibition at 1.1 µM in assay [1] was found to be 14%; in assay [2], 60%. For the same compound, the inhibition at 1 µM stood at 40% in assay [3] and 7% in assay [4].

For the compound `OC(c1ccc(F)cc1F)c1cc(-c2ccncc2)sc1-c1nnc[nH]1` (stereo not shown) [Compound 162], the values for the inhibition at 1.1 µM in assay [1] and in assay [2] were 38% and 93%, respectively. The inhibition at 1 µM in assay [3] was found to be 83%; in assay [4] it was 33%.
